In patent US20110053964A1, “4-AMINOQUINAZOLINE DERIVATIVES AND METHODS OF USE THEREOF” (priority 2006, published 2011):

Legend:
[1] = Pharmacokinetics in rats, intravenous; format: in vivo, Sprague-Dawley rats; details: rat, single intravenous bolus 2 mg/kg; for half-life compared to lapatinib: tosylate salt (FIGS. 2 and 3)
Experimental: Rats were anesthetized using pentobarbital (IP 40 mg/kg) prior to administration of compound. […] The rats were administered a single bolus 2 mg/kg dose of compound via jugular cannula, followed by a wash-out with saline. Blood samples (0.25 mL) were taken from the jugular at 5, 15 and 30 minutes and at 1, 2, 4, 6, 9, 12, and 24 hours post-dosing. Blood samples were centrifuged within 15 minutes of removal from the animal, centrifuged, and the plasma fraction removed and stored at −20° C. until analysis. Samples were analyzed by LC-MS.

[2] = Pharmacokinetics in rats, oral dosing; details: rat, oral dosing 20 mg/kg, tosylate salt; data not shown

SMILES | half-life compared to lapatinib [1] | half life compared to lapatinib [2] | half-life ([1]; Sprague-Dawley, tosylate salt, plasma) [h]
Cc1ccc(S(=O)(=O)O)cc1.Cc1ccc(S(=O)(=O)O)cc1.[2H]C([2H])(CS(C)(=O)=O)NC([2H])([2H])c1ccc(-c2ccc3ncnc(Nc4ccc(OCc5cccc(F)c5)c(Cl)c4)c3c2)o1 [Compound 101, [3-Chloro-4-(3-fluorobenzyloxy)phenyl]-(6-{5-[(2-methanesulfonyl-1,1-d2-ethylamino)-d2-methyl]-furan-2-yl}-quinazolin-4-yl)amine di-tosylate] | significantly longer half-lives than lapatinib | longer half lives than lapatinib | –
Cc1ccc(S(=O)(=O)O)cc1.Cc1ccc(S(=O)(=O)O)cc1.[2H]C([2H])(NC([2H])([2H])C([2H])([2H])S(=O)(=O)C([2H])([2H])[2H])c1ccc(-c2ccc3ncnc(Nc4ccc(OCc5cccc(F)c5)c(Cl)c4)c3c2)o1 [Compound 102, [3-Chloro-4-(3-fluoro-benzyloxy)-phenyl]-(6-{5-[(2-d3-methanesulfonyl-1,1,2,2-4-ethylamino)-d2-methyl]-furan-2-yl}-quinazolin-4-yl)amine di-tosylate] | significantly longer half-lives than lapatinib | longer half lives than lapatinib | –
CS(=O)(=O)CCNCc1ccc(-c2ccc3ncnc(Nc4ccc(OCc5cccc(F)c5)c(Cl)c4)c3c2)o1.Cc1ccc(S(=O)(=O)O)cc1 [Lapatinib, [3-Chloro-4-(3-fluorobenzyloxy)phenyl](6-{5-[(2-methanesulfonylethylamino)-methyl]furan-2-yl}-quinazolin-4-yl)amine 4-toluenesulfonate salt, reference compound] | – | – | 1 ± 0.05
